Source: patent publication US8304252B2, “Stereoselective bioconversion of aliphatic dinitriles into cyano carboxylic acids” (Pfizer Inc., priority 2004, dated 2012)
≈ marks a conversion by molar mass, not a printed value.

Experiment: physchem
Assay type: physicochemical
Conditions: 30 °C, pH 7.5, aqueous buffer
Protocol: This process can be carried out in reaction mixtures comprised of two phases: an aqueous phase, which initially contains enzyme and dissolved 2-isobutyl-succinonitrile, and an organic phase, which consist mainly of racemic 2-isobutyl-succinonitrile. Two-phase reaction mixtures are prepared by adding 2-isobutyl-succinonitrile to an aqueous solution of enzyme and buffer agents such that the amount of 2-isobutyl-succinonitrile added exceeds it aqueous solubility limit. The aqueous solubility limit of 2-isobutyl-succinonitrile in 50 mM potassium phosphate (30° C., pH 7.5) is approximately 0.06M. Over the course of the reaction, (S)-3-cyano-5-methylhexanoic acid ammonium salt is formed and increases in concentration in the aqueous phase, while the organic phase decreases in volume and becomes enriched in (R)-2-isobutyl-succinonitrile. Alternately, this process can also be carried out in reaction mixtures comprised of three phases: an aqueous phase, which initially contains dissolved 2-isobutyl-succinonitrile, an organic phase, which consists mainly of racemic 2-isobutyl-succinonitrile, and a solid phase, which consists of enzyme immobilized on an insoluble support. Three-phase reaction mixtures are prepared by the procedure described for two-phase reaction mixture except that an enzyme immobilized on an insoluble support is used in place of an un-immobilized enzyme.

SMILES: CC(C)CC(C#N)CC#N (racemic) [2-isobutyl-succinonitrile]
- solubility: ~60 mM (≈ 8170 µg/mL)
